Data reported in patent EP0430025A2, “Xanthine compound, method for preparing thereof, and a pharmaceutical composition comprising the same” (HOKURIKU PHARMACEUTICAL CO., LTD., priority 1989, dated 1991).

Tests used:
[1] = tested on: isolated guinea-pig atria; experiment: Chronotropic activity in the isolated guinea-pig atrium (spontaneous beating rate of right atrium); conditions: 15% increase of spontaneous beating rate of right atrium; cumulative addition; 30°C
Protocol: Male Hartley guinea-pig weighing about 500 g was sacrificed and the right atrium was removed. The atrium was mounted vertically in an organ bath containing Krebs-Henseleit solution. The bath medium was maintained at 30°C and was equilibrated with a gas mixture consisting of 95% 0₂ and 5% CO₂. A restintion of 0.5 g was applied. The spontaneous beating rates for the right atrium were recorded by using a heart rate counter. The test compounds were added cumulatively to the bath. ED₁₅ values representing the amount of the compound which produced 15% increases of the spontaneous beating rates for the right atria were caluculated on the basis of the results obtained.

[2] = tested on: isolated dog mesenteric artery; experiment: Relaxation activity in the isolated dog mesenteric artery (pre-contracted with prostaglandin F2α); conditions: for EC50: Canis lupus familiaris, 50% of maximal relaxation (10⁻⁴M papaverine), pre-contracted with prostaglandin F₂α 3 × 10⁻⁶ M, 37°C, read-out: relaxation activity in the isolated dog mesenteric artery ED₅₀; for relative effectiveness of the compounds to reference B: dog mesenteric artery ED₅₀ relative to reference compound B (propentofylline) = 1
Protocol: The mesenteric arteries were isolated from mongrel dogs of either sex weighing about 10kg. Each helical strip (2 mm in width and 20 mm in length) was mounted vertically in an organ bath containing Krebs-Henseleit solution. The bath medium was maintained at 37 °C and was equilibrated with a gas mixture consisting of 95% O₂ and 5% […]. A resting tension of 1.0 g was applied and the response was recorded isometrically. The preparations were pre-contracted with prostaglandin F₂ α (3 × 10⁻⁶ M) and the smooth muscle relaxations induced by the test compounds were recorded. The test compounds were added cumulatively to the bath. ED₅₀ values representing the amount of the compound which produces 50% relaxations of the maximal relaxations (10 ⁻⁴M papaverine) were caluculated on the basis of the results obtained above.

[3] = tested on: isolated guinea-pig trachea; experiment: Relaxation activity in the isolated guinea-pig trachea (resting tonus, organ bath); conditions: for EC50: Cavia porcellus, 50% of maximal relaxation (10⁻⁶M isoproterenol), resting tonus, cumulative addition, 37°C, read-out: relaxation activity in the isolated guinea-pig trachea ED₅₀; for relative effectiveness of the compounds to reference A: guinea-pig trachea ED₅₀ relative to reference compound A (theophylline) = 1
Protocol: Male Hartley guinea-pigs weighing about 500 g were sacrificed and the trachea were removed. The tracheal chain strips were made and the preparations were mounted vertically in an organ bath containing Locke-Ringer solution. The bath medium was maintained at 37°C and was equilibrated with a gas mixture consisting of 95% O₂ and 5% CO₂. Relaxation activities of the test compounds on the resting tonus of the preparations were recorded isotonically. The test compounds were added cumulatively to the bath. ED₅₀ values representing the amount of the compound tested which produces 50% relaxations of the maximal relaxations (10⁻⁶M isoproterenol) were calculated on the basis of the results obtained above.

[4] = tested on: complete cerebral ischemia in mice; experiment: Protective effect on complete cerebral ischemia in mice (gasping duration after decapitation); type: in vivo; conditions: 50 mg/kg, p.o., 30 minutes before decapitation; male ddY mice
Protocol: Male ddY mice weighing about 25 g were used. Complete cerebral ischemia was produced by the amputation of the cervix between the medulla oblongata and the spinal cord. The time between decapitation and the last gasp was recorded as gasping duration. Test compounds were suspended with 0.5% carboxymethylcellulose except propentofylline which was dissolved in distilled H₂O, and then administered orally 30 minutes before the decapitation. The gasping duration was evaluated at the dose of 50 mg/kg.

SMILES | chronotropic activity in the isolated guinea-pig atria ED₁₅ [1] [× 10⁻⁵ M] | EC50 [2] [µM] | relative effectiveness of the compounds to reference B [2] | EC50 [3] [µM] | relative effectiveness of the compounds to reference A [3] | protective effect on complete cerebral iscehemia in mice gasping duration [4] [%]
CC(=O)Cn1c(=O)c2c(ncn2C)n(C2CC2)c1=O [Example 3, 3-Cyclopropyl-3,7-dihydro-7-methyl-1-(2-oxopropyl)-1H-purine-2,6-dione] | > 10 |  |  |  |  | 
CC(=O)CCCCn1c(=O)c2c(ncn2C)n(C2CC2)c1=O [Example 6, 3-Cyclopropyl-3,7-dihydro-7-methyl-1-(5-oxohexyl)-1H-purine-2,6-dione] | > 10 | 15 | 2.5 |  |  | 
CCCCn1cnc2c1c(=O)n(CCCCC(C)=O)c(=O)n2C1CC1 [Example 15, 7-n-Butyl-3-cyclopropyl-3,7-dihydro-1-(5-oxohexyl)-1H-purine-2,6-dione] | > 10 | 36 | 1.1 | 18 | 1.6 | 112.3
CCCCCn1cnc2c1c(=O)n(CCCCC(C)=O)c(=O)n2C1CC1 [Example 16, 3-Cyclopropyl-3,7-dihydro-1-(5-oxohexyl)-7-n-pentyl-1H-purine-2,6-dione] | > 10 |  |  | 23 | 1.2 | 107.8
CCCCCCn1cnc2c1c(=O)n(CCCCC(C)=O)c(=O)n2C1CC1 [Example 17, 3-Cyclopropyl-7-n-hexyl-3,7-dihydro-1-(5-oxohexyl)-1H-purine-2,6-dione] | > 10 | 18 | 2.1 | 11 | 2.5 | 106.8
CC(=O)CCCCn1cnc2c1c(=O)n(C)c(=O)n2C1CC1 [Example 25, 3-Cyclopropyl-3,7-dihydro-1-methyl-7-(5-oxohexyl)-1H-purine-2,6-dione] | > 10 |  |  |  |  | 
CCn1c(=O)c2c(ncn2CC(C)=O)n(C2CC2)c1=O [Example 26, 3-Cyclopropyl-1-ethyl-3,7-dihydro-7-(2-oxopropyl)-1H-purine-2,6-dione] |  | 10 | 3.8 | 14 | 2.0 | 
CCCCn1c(=O)c2c(ncn2CC(C)=O)n(C2CC2)c1=O [Example 30, 1-n-Butyl-3-cyclopropyl-3,7-dihydro-7-(2-oxopropyl)-1H-purine-2,6-dione] | > 10 | 0.56 | 68 | 1.5 | 19 | 
CCCCCCn1c(=O)c2c(ncn2CC(C)=O)n(C2CC2)c1=O [Example 34, 3-Cyclopropyl-1-n-hexyl-3,7-dihydro-7-(2-oxopropyl)-1H-purine-2,6-dione] | > 10 | 0.64 | 59 | 6 | 4.7 | 
Cn1cnc2c1c(=O)n(CCCCC1(C)OCCO1)c(=O)n2C1CC1 [Example 38, 3-Cyclopropyl-3,7-dihydro7-methyl-1-[4-(2-methyl-1,3-dioxolan-2-yl)butyl]-1H-purine-2,6-dione] | > 10 |  |  |  |  | 
CCCCn1c(=O)c2c(ncn2CC2(C)OCCO2)n(C2CC2)c1=O [Example 40, 1-n-Butyl-3-cyclopropyl-3,7-dihydro-7-[(2-methyl-1,3-dioxolan-2-yl)methyl]-1H-purine-2,6-dione] | > 10 |  |  | 16 | 1.8 | 
Cn1c(=O)c2[nH]cnc2n(C)c1=O [Reference compound A, theophylline, reference compound] | 7.6 |  |  | 28 | 1 | 
CCCn1cnc2c1c(=O)n(CCCCC(C)=O)c(=O)n2C [Reference compound B, propentofylline, reference compound] | 5.1 | 38 | 1 |  |  | 106.4
